Here are results for 15 molecules from patent US12404243B2, “Inhibitors of the Wnt/beta-catenin pathway” (The Regents of the University of California, priority 2018, dated 2025).

SMILES strings stand for the structures. Entries after “also recorded” stand apart in the source; their conditions may differ.

Experiment [1] relates to Wnt/β-catenin-mediated transcription. The experiment is described as follows: TCF-luciferase activity assay in 293T/Top/β-cat* cells. The format is cell-based. The conditions noted are these: summary of FIGS. 5A, B (293T/Top cells + LiCl) and 6A-C (293T/Top/β-cat* cells). The method, then: 293T cells were maintained in DMEM medium containing 10% FBS and antibiotics (penicillin and streptomycin) at 37° C. in 5% CO2. Cells were stably infected with lentiviruses expressing the TopFlash reporter (293T/Top cells). The β-catenin mutant (β-cat*, the constitutively active mutant) construct was prepared using the retroviral expression vector by standard PCR. For viral transduction, retrovirus was obtained by co-trasfection of pQCXIP-β-cat* with packaging plasmids into 293T cells following the manufacturer's instructions. 293T/Top stable cells were seeded in 10 cm dish and incubated overnight. The next day cells were treated with retroviral particles. After 12 hours, the medium was replaced with fresh medium. 2 days post virus infection, the cells were selected with puromycin for 5 days to generate the 293T/Top/β-cat* stable cell line.
293 T/Top/β-cat* cells were plated at 40%-50% confluences in 12-well plate for 8 hours and then treated with Wnt inhibitors overnight. The luciferase activity of total cell lysates was measured using Luciferase Assay System (Promega). The related TCF-luciferase activity was normalized against the protein concentration of each cell lysate sample.

For experiment [2], the system named is SW480 tumor xenografts. The experiment is described as follows: Mouse xenografts of SW480 cells. The conditions noted are these: for tumor volume: day 12 to day 21 (FIG. 9A); for tumor growth: mouse xenograft studies of human colon cancer, summary of FIGS. 7A-D, 8A-C, 9A-C. Format: in vivo, nude mice. The method, then: 5×10^5 of SW480 cells were injected subcutaneously into the flank area of 6-8-week-old nude mice. Tumor volume was measured by using an electronic caliper and calculated with the formula length×width^2×0.5, every 2 days. 12 days after inoculation, tumor bearing mice were administered Wnt inhibitors (dissolved in 10% DMSO+20% Cremophor EL+70% normal saline) via intraperitoneal injection for 5 days per week for 10 days at 10 mg/kg. Animal body weights were measured before drug treatments and at the end of the experiments. At the end of the experiments, animals were euthanized with carbon dioxide, followed by cervical dislocation. The tumors were dissected and weighed on the digital balance. We housed mice in pathogen-free facilities under 12-h light and 12-h dark cycle. The animal protocol and experimental procedures were approved by the Division of Laboratory Animal Medicine of UCLA and were in accordance with the US National Institute of Health guidelines.
For orientation: In xenograft studies the graft and the host belong to different species.

Where [3] appears, read: SW480 xenografts, 10 mg/kg, day 12 to 22 (FIG. 7A).
Setting [4] is: SW480 xenografts, 10 mg/kg, day 12 to 22 (FIG. 7B).
Where [5] appears, read: SW480 xenografts, 10 mg/kg, day 12 to 22 (FIG. 7C).
[6] abbreviates: SW480 xenografts, 10 mg/kg, day 12 to day 21 (FIG. 9B).
Setting [7] is: SW480 xenografts, 10 mg/kg, day 12 to day 21 (FIG. 9C).
Where [8] appears, read: SW480 xenografts, 10 mg/kg, day 12 to day 20 (FIG. 8B).
Setting [9] is: SW480 xenografts, 10 mg/kg, day 12 to 22 (FIG. 16A).
Where [10] appears, read: SW480 xenografts, 10 mg/kg, day 12 to 22 (FIG. 16B).
[11] abbreviates: SW480 xenografts, 10 mg/kg, day 12 to 22 (FIG. 16C).

On to `CN(C)CCC(=O)N1C/C(=C\c2cc(Cl)cc(Cl)c2)C(=O)/C(=C/c2cc(Cl)cc(Cl)c2)C1` [JC028, 3,5-Bis((E)-3,5-dichlorobenzylidene)-1-(3-(dimethylamino)propanoyl)piperidin-4-one], for which, in experiment [1], the Wnt/β-catenin-mediated transcription entry is “significantly inhibited”.
For `CN(C)CCS(=O)(=O)N1C/C(=C\c2ccc(F)c(F)c2)C(=O)/C(=C/c2ccc(F)c(F)c2)C1` [JC060, 3,5-Bis((E)-3,4-difluorobenzylidene)-1-((2-(dimethylamino)ethyl)sulfonyl)piperidin-4-one], in experiment [1], the Wnt/β-catenin-mediated transcription result is recorded as “significantly inhibited”. Also, the tumor volumes result in experiment [2] (setting [3]) is listed as “significantly reduced tumor volumes”. Also, the “tumor sizes at the end of treatment” value is given as “significantly reduced the size of tumors recovered” in experiment [2] (setting [4]) and “significantly reduced the size of the tumors recovered” in experiment [2] (setting [6]). The “tumor weights at the end of treatment” value in experiment [2] (setting [5]) was “significantly reduced the weight of tumors recovered”; in experiment [2] (setting [7]), “significantly reduce the weight of tumors recovered”. In experiment [2] (SW480 xenografts, 10 mg/kg), the tumor volume result is recorded as “significantly reduce tumor volume”. Besides, the tumor growth result in experiment [2] was “significantly inhibited the tumor growth”.
Consider `CN(C)CCOc1ccc(C(=O)NC2C/C(=C\c3ccc(F)c(F)c3)C(=O)/C(=C/c3ccc(F)c(F)c3)C2)cc1` (stereo not drawn) [JC081, N-(3,5-Bis((E)-3,4-difluorobenzylidene)-4-oxocyclohexyl)-4-(2-(dimethylamino)ethoxy)benzamide], for which, in experiment [1], the Wnt/β-catenin-mediated transcription entry was “significantly inhibited”. Further, the tumor volume entry in experiment [2] (SW480 xenografts, 10 mg/kg) is recorded as “significantly reduce tumor volume”. For the same molecule, the “tumor sizes at the end of treatment” value in experiment [2] (setting [6]) was “significantly reduced the size of the tumors recovered”. Also, in experiment [2] (setting [7]), the “tumor weights at the end of treatment” value was “significantly reduce the weight of tumors recovered”. Besides, in experiment [2], the tumor growth entry is on record as “significantly inhibited the tumor growth”.
As for `CN(C)CCC(=O)N1C/C(=C\c2ccccn2)C(=O)/C(=C/c2ccccn2)C1` [JC021, (3E,5E)-1-(3-(Dimethylamino)propanoyl)-3,5-bis(pyridin-2-ylmethylene)piperidin-4-one], the Wnt/β-catenin-mediated transcription entry in experiment [1] was “significantly inhibited”.
As for `O=C1/C(=C/c2ccc(F)c(F)c2)CN(C(=O)c2ccc(OCCN3CCCCC3)cc2)C/C1=C\c1ccc(F)c(F)c1` [JC082, 3,5-Bis((E)-3,4-difluorobenzylidene)-1-(4-(2-(piperidin-1-yl)ethoxy)benzoyl)piperidin-4-one], in experiment [2] (SW480 xenografts, 10 mg/kg), the tumor volume entry was “significantly reduce tumor volume”. The “tumor sizes at the end of treatment” value in experiment [2] (setting [6]) is listed as “significantly reduced the size of the tumors recovered”. In addition, the “tumor weights at the end of treatment” value in experiment [2] (setting [7]) was “significantly reduce the weight of tumors recovered”. Also, the tumor growth entry in experiment [2] is on record as “significantly inhibited the tumor growth”.
Turning to `CN(C)CCC(=O)N1C/C(=C\c2ccc(C(F)(F)F)cc2)C(=O)/C(=C/c2ccc(C(F)(F)F)cc2)C1` [JC022, 1-(3-(Dimethylamino)propanoyl)-3,5-bis((E)-4-(trifluoromethyl)benzylidene)piperidin-4-one], the Wnt/β-catenin-mediated transcription result in experiment [1] is “significantly inhibited”.
Turning to `CN(C)CCC(=O)NC1C/C(=C\c2ccc(F)c(F)c2)C(=O)/C(=C/c2ccc(F)c(F)c2)C1` (stereo not drawn) [JC070, N-(3,5-Bis((E)-3,4-difluorobenzylidene)-4-oxocyclohexyl)-3-(dimethylamino)propanamide], in experiment [1], the Wnt/β-catenin-mediated transcription result is given as “significantly inhibited”. Also, in experiment [2] (setting [3]), the tumor volumes result is reported as “significantly reduced tumor volumes”. For the same molecule, the “tumor sizes at the end of treatment” value in experiment [2] (setting [4]) is on record as “significantly reduced the size of tumors recovered”. Moreover, the “tumor weights at the end of treatment” value in experiment [2] (setting [5]) is reported as “significantly reduced the weight of tumors recovered”. In experiment [2], the tumor growth result is on record as “showed some inhibition, but did not reach significance”.
With `CCN(CC)CCS(=O)(=O)N1C/C(=C\c2ccc(F)c(F)c2)C(=O)/C(=C/c2ccc(F)c(F)c2)C1` [JC098, 1-((2-(Diethylamino)ethyl)sulfonyl)-3,5-bis((E)-3,4-difluorobenzylidene)piperidin-4-one], the “actual tumor sizes at the end of treatment” value (shortened to “actual tumor sizes at the end”) in experiment [2] (setting [8]) is “reduced the size of tumors recovered”.
On to `CN(C)CCNC(=O)C1C/C(=C\c2cc(Cl)cc(Cl)c2)C(=O)/C(=C/c2cc(Cl)cc(Cl)c2)C1` (stereo not drawn) [JC137, 3,5-Bis((E)-3,5-dichlorobenzylidene)-N-(2-(dimethylamino)ethyl)-4-oxocyclohexane-1-carboxamide], for which, in experiment [2] (setting [9]), the “actual tumor sizes at the end” value was “reduced the size of tumors recovered”.
On to `O=C1/C(=C/c2ccc(F)c(F)c2)CN(C(=O)CCN2CCCCC2)C/C1=C\c1ccc(F)c(F)c1` [JC048, 3,5-Bis((E)-3,4-difluorobenzylidene)-1-(3-(piperidin-1-yl)propanoyl)piperidin-4-one], for which, in experiment [1], the Wnt/β-catenin-mediated transcription entry is on record as “significantly inhibited”.
For `CCN(CC)CCC(=O)N1C/C(=C\c2ccc(F)c(F)c2)C(=O)/C(=C/c2ccc(F)c(F)c2)C1` [JC049, 1-(3-(Diethylamino)propanoyl)-3,5-bis((E)-3,4-difluorobenzylidene)piperidin-4-one], the Wnt/β-catenin-mediated transcription result in experiment [1] is given as “significantly inhibited”. Further, the tumor volumes result is on record as “significantly reduced tumor volumes” in experiment [2] (setting [3]); “significantly reduced tumor volumes” in experiment [2] (setting [11]); “significantly reduced tumor volumes” in experiment [2] (SW480 xenografts, 10 mg/kg, day 12 to day 20 (FIG. 8A)). Also, the “tumor sizes at the end of treatment” value in experiment [2] (setting [4]) is listed as “significantly reduced the size of tumors recovered”; in experiment [2] (setting [6]), “significantly reduced the size of the tumors recovered”. For the same molecule, the “tumor weights at the end of treatment” value is recorded as “significantly reduced the weight of tumors recovered” in experiment [2] (setting [5]), “significantly reduced the weight of tumors recovered” in experiment [2] (setting [10]) and “significantly reduce the weight of tumors recovered” in experiment [2] (setting [7]). For the same molecule, the “actual tumor sizes at the end” value in experiment [2] (setting [9]) and in experiment [2] (setting [8]) was “reduced the size of tumors recovered” in each case. The “actual tumor weights at the end of treatment” value in experiment [2] (SW480 xenografts, 10 mg/kg, day 12 to day 20 (FIG. 8C)) is given as “significantly reduced the weight of tumors recovered”. The tumor volume result in experiment [2] (SW480 xenografts, 10 mg/kg) is “significantly reduce tumor volume”. In addition, the tumor growth entry in experiment [2] is on record as “significantly inhibited the tumor growth; also recorded: showed the strongest inhibition”.
In the case of `O=C1/C(=C/c2ccc(F)c(F)c2)CN(C(=O)CCC(=O)N2CCCC2)C/C1=C\c1ccc(F)c(F)c1` [JC072, 1-(3,5-Bis((E)-3,4-difluorobenzylidene)-4-oxopiperidin-1-yl)-4-(pyrrolidin-1-yl)butane-1,4-dione], in experiment [1], the Wnt/β-catenin-mediated transcription result is listed as “significantly inhibited”.
In the case of `CN(C)CCC(=O)N1C/C(=C\c2cccc(C(F)(F)F)c2)C(=O)/C(=C/c2cccc(C(F)(F)F)c2)C1` [JC018, 1-(3-(Dimethylamino)propanoyl)-3,5-bis((E)-3-(trifluoromethyl)benzylidene)piperidin-4-one], the Wnt/β-catenin-mediated transcription entry in experiment [1] is “significantly inhibited”.
Same read-out and setting: the entry for `CN(C)CCC(=O)N1C/C(=C\c2ccc(Cl)c(Cl)c2)C(=O)/C(=C/c2ccc(Cl)c(Cl)c2)C1` [JC032, 3,5-Bis((E)-3,4-dichlorobenzylidene)-1-(3-(dimethylamino)propanoyl)piperidin-4-one] is “significantly inhibited”.
In the case of `CN(C)CCOc1ccc(NC(=O)C2C/C(=C\c3cc(Cl)cc(Cl)c3)C(=O)/C(=C/c3cc(Cl)cc(Cl)c3)C2)cc1` (stereo not drawn) [JC138, 3,5-Bis((E)-3,5-dichlorobenzylidene)-N-(4-(2-(dimethylamino)ethoxy)phenyl)-4-oxocyclohexane-1-carboxamide], the “actual tumor sizes at the end” value in experiment [2] (setting [9]) was “reduced the size of tumors recovered”. In experiment [2] (setting [10]), the “tumor weights at the end of treatment” value was “significantly reduced the weight of tumors recovered”. Besides, the tumor volumes entry in experiment [2] (setting [11]) was “significantly reduced tumor volumes”.
